Literature values in patent US12466782B2, “Arylcyclohexylamine derivatives and process for preparing same” (Technische Hochschule Köln, priority 2020, dated 2025).

Settings: mouse model

## NC1(c2ccccc2Cl)CCCC(O)C1=O (stereo not shown) [6-hydroxynorketamine]
  dose at which an effect comparable to that of 10 mg/kg ketamine was observed: ≥ 25 mg/kg
